Test systems include Escherichia coli BL21AI; Escherichia coli DC2; Serratia rubidaea X01; Staphylococcus aureus.
Test in all cases: ≥ marks a high value that may be exact or a test limit, other limits are often not marked, values filed in µg/mL are converted to µM
Assay [1] has as its system Micrococcus luteus ATCC 10240.
The test system of assay [2] is Klebsiella pneumoniae DSM 681.
For assay [3], the system named is Escherichia coli DSM 1103.
Assay [4] relates to Bacillus subtilis DSM 347.
For assay [5], the system named is Staphylococcus aureus ATCC 2592.
For assay [6], the system named is Psychrobacter faecalis X29.
For assay [7], the system named is Rhodococcus rhodochrous X15.
The test system of assay [8] is Escherichia coli ATCC 25922.
The test system of assay [9] is Staphylococcus carnosus KHS.
The subject of assay [10] is Bacillus licheniformis X39.
Assay [11] has as its system Streptococcus gordonii Challis DL1.
Assay [12] concerns Streptococcus sanguinis NY101.
In assay [13] the test system is Pseudomonas aeruginosa PAK.
The subject of assay [14] is Streptococcus mitis ATCC 903.
Assay [15] deals with Streptococcus mutans UA159.
Assay [16] has as its system Bacillus subtilis IFO 3336.
The subject of assay [17] is Escherichia coli IFO 3301.

The source of these data is DBAASP.

Converted amounts (≈) assume the structure as drawn. Some results are limits rather than exact numbers.

As to `CC[C@H](C)[C@H](NC(=O)[C@H](Cc1ccc(O)cc1)NC(=O)[C@@H](NC(=O)[C@@H]1CCCN1C(=O)[C@H](CCCN=C(N)N)NC(=O)[C@H](CC(N)=O)NC(=O)[C@H](CC(N)=O)NC(=O)CNC(C)=O)C(C)C)C(=O)N1CCC[C@H]1C(=O)N[C@@H](CCCN=C(N)N)C(=O)N1CCC[C@H]1C(=O)N[C@@H](CCCN=C(N)N)C(=O)N1CCC[C@H]1C(=O)N1CCC[C@H]1C(=O)N[C@@H](Cc1cnc[nH]1)C(=O)N1CCC[C@H]1C(=O)N[C@@H](CCCN=C(N)N)C(=O)N[C@@H](CC(C)C)C(N)=O` [GNNRPVYIPRPRPPHPRL], the MIC – broadly, the lowest concentration that inhibits growth of the organism – in assay [1] is 0.913 µM (≈ 1.99 µg/mL); in [2] it was 1.83 µM (≈ 3.97 µg/mL); in assay [3], 1.83 µM (≈ 3.97 µg/mL); in [4], not below 58.5 µM; against Escherichia coli BL21AI, 1.49 µM (≈ 3.25 µg/mL); against Escherichia coli DC2, 1.83 µM (≈ 3.97 µg/mL).
Consider `CC[C@H](C)[C@H](NC(=O)CNC(=O)[C@H](CCCCN)NC(=O)[C@@H](NC(=O)[C@H](CC(C)C)NC(=O)CNC(=O)[C@H](CC(N)=O)NC(=O)[C@H](CCCCN)NC(=O)[C@@H](NC(=O)[C@H](Cc1c[nH]c2ccccc12)NC(=O)[C@H](CO)NC(=O)CNC(=O)[C@H](CCCCN)NC(=O)CNC(=O)[C@H](CCCCN)NC(=O)[C@H](CCCCN)NC(=O)[C@H](Cc1ccccc1)NC(=O)[C@H](CO)NC(=O)[C@@H](NC(=O)[C@@H](N)CCCN=C(N)N)[C@@H](C)CC)[C@@H](C)CC)[C@@H](C)CC)C(=O)N[C@@H](CCCCN)C(=O)NCC(=O)N[C@@H](CC(C)C)C(=O)NCC(=O)N[C@@H](CCCCN)C(=O)N[C@@H](CCC(=O)O)C(=O)N[C@H](C(=O)N[C@@H](CO)C(=O)N[C@@H](CC(C)C)C(=O)N[C@@H](CC(=O)O)C(=O)N[C@H](C(=O)N[C@H](C(=O)N[C@@H](CCCN=C(N)N)C(=O)N[C@H](C(=O)NCC(=O)N[C@H](C(=O)N[C@@H](CC(=O)O)C(=O)N[C@H](C(=O)N[C@@H](C)C(=O)NCC(=O)N[C@H]1CSSC[C@@H](C(=O)O)NC(=O)[C@H](CCC(=O)O)NC(=O)CNC(=O)[C@H](CCCCN)NC(=O)[C@H]([C@@H](C)CC)NC(=O)[C@H](CCCCN)NC1=O)[C@@H](C)CC)[C@@H](C)CC)[C@@H](C)O)[C@@H](C)CC)C(C)C)[C@@H](C)CC` [RISFKKGKGSWIKNGLIKGIKGLGKEISLDVIRTGIDIAGCKIKGEC], for which the MIC was found to be 0.6 µM (≈ 3.02 µg/mL) in [5]; 0.6 µM (≈ 3.02 µg/mL) in assay [6]; 0.3 µM (≈ 1.51 µg/mL) in assay [7]; 5 µM (≈ 25.1 µg/mL) in [8]; 1.3 µM (≈ 6.54 µg/mL) in assay [9]; 10 µM (≈ 50.3 µg/mL) in the assay on Serratia rubidaea X01. The compound further registered an MIC in assay [10] of 10 µM (≈ 50.3 µg/mL).
For `CC[C@H](C)[C@H](NC(=O)[C@H](Cc1ccccc1)NC(=O)[C@H](Cc1cnc[nH]1)NC(=O)[C@H](CCCCN)NC(=O)[C@@H](NC(=O)[C@@H](N)Cc1ccccc1)[C@@H](C)CC)C(=O)N[C@@H](Cc1cnc[nH]1)C(=O)N[C@@H](CCCN=C(N)N)C(=O)N[C@@H](Cc1ccccc1)C(=O)NCC(=O)NCC(=O)NCC(=O)N[C@@H](Cc1ccccc1)C(=O)N[C@@H](CCCCN)C(=O)N[C@@H](CCCCN)C(=O)N[C@@H](Cc1ccccc1)C(=O)N[C@@H](Cc1c[nH]c2ccccc12)C(=O)N[C@@H](CCCCN)C(=O)N[C@@H](Cc1c[nH]c2ccccc12)C(=O)N[C@@H](Cc1ccccc1)C(=O)N[C@@H](CCCN=C(N)N)C(=O)N[C@@H](CCCN=C(N)N)C(=O)N[C@@H](Cc1ccccc1)C(N)=O` [FIKHFIHRFGGGFKKFWKWFRRF], the MIC in assay [11] worked out at 20.3 µM (≈ 62.5 µg/mL); in assay [12], 5.21 µM (≈ 16 µg/mL); in assay [13], 20.3 µM (≈ 62.5 µg/mL); in assay [14] it was 10.4 µM (≈ 32 µg/mL); in assay [15], 1.3 µM (≈ 4 µg/mL); in the assay with Staphylococcus aureus it was 5.21 µM (≈ 16 µg/mL).
As to `NC(N)=NCCC[C@H](NC(=O)[C@H](Cc1cnc[nH]1)NC(=O)[C@H](CCCN=C(N)N)NC(=O)[C@H](Cc1cnc[nH]1)NC(=O)[C@H](CCCN=C(N)N)NC(=O)[C@H](Cc1cnc[nH]1)NC(=O)[C@@H](N)CCCN=C(N)N)C(=O)N[C@@H](Cc1cnc[nH]1)C(=O)O` [RHRHRHRH], the MIC in [16] and in assay [17] was 8.39 µM (≈ 10 µg/mL) in each case.
For `CC[C@H](C)[C@H](NC(=O)[C@H](Cc1ccc(O)cc1)NC(=O)[C@@H](NC(=O)[C@@H]1CCCN1C(=O)[C@H](CCCCN)NC(=O)[C@H](CC(N)=O)NC(=O)[C@H](CC(N)=O)NC(=O)CN)C(C)C)C(=O)N1CCC[C@H]1C(=O)N[C@@H](CCCN=C(N)N)C(=O)N1CCC[C@H]1C(=O)N[C@@H](CCCN=C(N)N)C(=O)N1CCC[C@H]1C(=O)N1CCC[C@H]1C(=O)N[C@@H](Cc1cnc[nH]1)C(=O)N1CCC[C@H]1C(=O)N[C@@H](CCCN=C(N)N)C(=O)N[C@@H](CC(C)C)C(=O)N[C@H](C(N)=O)C(C)C` [GNNKPVYIPRPRPPHPRLV], the MIC was 0.109 µM (≈ 0.24 µg/mL) in [1]; 14.2 µM (≈ 31.2 µg/mL) in assay [2]; 1.77 µM (≈ 3.9 µg/mL) in [3]; not below 56.6 µM in assay [4]; 3.54 µM (≈ 7.81 µg/mL) against Escherichia coli BL21AI; 3.54 µM (≈ 7.81 µg/mL) against Escherichia coli DC2.
